What all share (type): cell-based
In experiment [1] the test system is J774A.1 (Mouse BALB/c monocyte macrophage cell line) cells. Briefly: LPS-induced TNF-α secretion inhibition in J774A.1 cells. Particulars: J774.A1, 1 μM compound, graded compared to taurodeoxycholic acid (positive control), read-out: TNF-α production inhibition grade. The protocol: (§1) To evaluate anti-inflammatory efficacy, an inflammatory response was induced in J774A.1 (Mouse BALB/c monocyte macrophage cell line) cells derived from mouse macrophages by LPS (lipopolysaccharide) and LPS+ATP (adenosine triphosphate), and the efficacy of taurine-bile acid derivatives to inhibit the production of inflammatory cytokines (IL-1β, TNF-α) was measured. After treating J774A.1 cells with 1 μM of a taurine-bile acid derivative, the degree to which the secretion of TNF-α among cytokines was suppressed was measured in the experimental group in which an inflammatory response was induced by LPS, and the extent to which IL-1β secretion among cytokines was suppressed was measured in the experimental group in which an inflammatory response was induced with LPS+ATP. The ability of taurine-bile acid derivatives to inhibit cytokine production was graded compared to taurodeoxycholic acid, a positive control. The grading criteria are A: over 100%, B: over 50% and under 100%, C: between 20% and under 50%, and D: under 20%.

Experiment [2] shares this test system. Description: LPS+ATP-induced IL-1β secretion inhibition in J774A.1 cells. Particulars: J774.A1, 1 μM compound, graded compared to taurodeoxycholic acid (positive control), read-out: IL-1β production inhibition grade. Here is the method:
as §1

Experiment [3] deals with U937 cells (human monocytic cell line). Briefly: Pam2CSK4-induced TNF-α secretion inhibition in PMA-differentiated U937 cells. Particulars: U-937, U937 cells differentiated with PMA, read-out: TNF-α production inhibition grade (IC50). Here is the method: (§2) To evaluate anti-inflammatory efficacy, U937 cells (human monocytic cell line) were differentiated into macrophages using PMA (phorbol 12-myristate 13-acetate) and then induced an inflammatory response with Pam2CSK4 (Pam2CysSerLys4) or BzATP (2′(3′)—O-(4-Benzoylbenzoyl)adenosine 5′-triphosphate), the efficacy of taurine-bile acid derivatives in suppressing inflammatory cytokine (IL-1β, TNF-α) production was measured.
(§3) Using PMA, U937 cells were differentiated into macrophages, and the extent of TNF-α secretion inhibition was measured in an experimental group where taurine-bile acid derivatives was treated, followed by induction of inflammatory response with Pam2CSK4, and in the experimental group in which an inflammatory response was induced with BzATP, the extent to which IL-1β secretion among cytokines was suppressed was measured.
(§4) The ability of taurine-bile acid derivatives to inhibit cytokine production was expressed in terms of IC50 (μM) values. The standards for TNF α inhibition ability are A: less than 0.5, B: 0.5 to less than 1.0, C: 1.0 to less than 2.0, D: 2.0 or more, and the IL-1β inhibition ability grade standards are A: less than 0.05, B: 0.05 to less than 0.10, C: 0.10 or more and less than 0.20, D: 0.20 or more.

The test system is the same in experiment [4]. Description: BzATP-induced IL-1β secretion inhibition in PMA-differentiated U937 cells. Particulars: U-937, U937 cells differentiated with PMA, read-out: IL-1β production inhibition grade (IC50). The protocol:
as §2, §3, §4

For the compound `C[C@H](CCC(=O)Nc1ccc(S(=O)(=O)O)cc1)[C@H]1CC[C@H]2[C@@H]3CC[C@@H]4C[C@H](O)CC[C@]4(C)[C@H]3C[C@H](O)[C@]12C` [NC10003], the inhibition at 1 µM in experiment [1] and in experiment [2] was > 100% each time. Besides, the results for the IC50 in experiment [3] and in experiment [4] were < 500 nM and < 50 nM, respectively.
Consider `C[C@H](CCC(=O)N(CCS(=O)(=O)O)C1CCCCC1)[C@H]1CC[C@H]2[C@@H]3CC[C@@H]4C[C@H](O)CC[C@]4(C)[C@H]3C[C@H](O)[C@]12C` [NC10004], for which the inhibition at 1 µM in experiment [1] fell in the range of 20 to 50%; in experiment [2], 50 to 100%. Moreover, the results for the IC50 in experiment [3] and in experiment [4] were ≥ 2000 nM and ≥ 200 nM, respectively.
For the compound `C[C@H](CCC(=O)N(CCS(=O)(=O)O)CC(N)=O)[C@H]1CC[C@H]2[C@@H]3CC[C@@H]4C[C@H](O)CC[C@]4(C)[C@H]3C[C@H](O)[C@]12C` [NC10005], the inhibition at 1 µM is < 20% in experiment [1] and 20 to 50% in experiment [2]. Besides, the 50% inhibitory concentration (IC50) in experiment [3] fell in the range of 1000 to 2000 nM; in experiment [4], 100 to 200 nM.
Regarding `C[C@H](CCC(=O)N(C)CCS(=O)(=O)O)[C@H]1CC[C@H]2[C@@H]3CC[C@@H]4C[C@H](O)CC[C@]4(C)[C@H]3C[C@H](O)[C@]12C` [NC10006], the inhibition at 1 µM in experiment [1] was < 20%; in experiment [2] it was 50 to 100%. The IC50 in experiment [3] is 500 to 1000 nM; in experiment [4] it was ≥ 200 nM.
With `C[C@H](CCC(=O)NCCOS(=O)(=O)O)[C@H]1CC[C@H]2[C@@H]3CC[C@@H]4C[C@H](O)CC[C@]4(C)[C@H]3C[C@H](O)[C@]12C` [NC10007], the inhibition at 1 µM in experiment [1] and in experiment [2] was 50 to 100% each time. Also, the IC50 in experiment [3] is ≥ 2000 nM; in experiment [4], < 50 nM.
With `C[C@H](CCC(=O)N1CCC(CCS(=O)(=O)O)CC1)[C@H]1CC[C@H]2[C@@H]3CC[C@@H]4C[C@H](O)CC[C@]4(C)[C@H]3C[C@H](O)[C@]12C` [NC10008], the inhibition at 1 µM in experiment [1] and in experiment [2] was > 100% each time. For the same compound, the results for the IC50 in experiment [3] and in experiment [4] were < 500 nM and < 50 nM, respectively.
Take `C[C@H](CCC(=O)N1CCN(S(=O)(=O)O)CC1)[C@H]1CC[C@H]2[C@@H]3CC[C@@H]4C[C@H](O)CC[C@]4(C)[C@H]3C[C@H](O)[C@]12C` [NC10009]: the inhibition at 1 µM in experiment [1] and in experiment [2] was > 100% throughout. Also, the IC50 was < 500 nM in experiment [3] and < 50 nM in experiment [4].
With `C[C@H](CCC(=O)N1CCN(CCS(=O)(=O)O)CC1)[C@H]1CC[C@H]2[C@@H]3CC[C@@H]4C[C@H](O)CC[C@]4(C)[C@H]3C[C@H](O)[C@]12C` [NC10010], the inhibition at 1 µM in experiment [1] and in experiment [2] was > 100% in each case. In addition, the IC50 is < 500 nM in experiment [3] and < 50 nM in experiment [4].
Take `C[C@H](CCC(=O)N1CCC(S(=O)(=O)O)CC1)[C@H]1CC[C@H]2[C@@H]3CC[C@@H]4C[C@H](O)CC[C@]4(C)[C@H]3C[C@H](O)[C@]12C` [NC10011]: the inhibition at 1 µM in experiment [1] and in experiment [2] was > 100% each time. Besides, the IC50 in experiment [3] is < 500 nM; in experiment [4], < 50 nM.
Take `C[C@H](CCC(=O)N1CCC(CCS(=O)(=O)O)CC1)[C@H]1CC[C@H]2[C@@H]3CC[C@@H]4C[C@H](O)CC[C@]4(C)[C@H]3CC[C@]12C` [NC10012]: the inhibition at 1 µM in experiment [1] and in experiment [2] was > 100% each time. Moreover, the values for the IC50 in experiment [3] and in experiment [4] were < 500 nM and < 50 nM, respectively.
Turning to `C[C@H](CCC(=O)NCCOS(=O)(=O)O)[C@H]1CC[C@H]2[C@@H]3CC[C@@H]4C[C@H](O)CC[C@]4(C)[C@H]3CC[C@]12C` [NC10013], the inhibition at 1 µM is < 20% in experiment [1] and 50 to 100% in experiment [2]. The IC50 lay within 500 to 1000 nM in experiment [3] and 50 to 100 nM in experiment [4].
In the case of `C[C@H](CCC(=O)NCCCS(=O)(=O)O)[C@H]1CC[C@H]2[C@@H]3CC[C@@H]4C[C@H](O)CC[C@]4(C)[C@H]3CC[C@]12C` [NC10014], the inhibition at 1 µM in experiment [1] and in experiment [2] was < 20% throughout. Also, the IC50 in experiment [3] is 1000 to 2000 nM; in experiment [4] it was < 50 nM.
As to `C[C@H](CCC(=O)Nc1ccc(S(=O)(=O)O)cc1)[C@H]1CC[C@H]2[C@@H]3CC[C@@H]4C[C@H](O)CC[C@]4(C)[C@H]3CC[C@]12C` [NC10015], the inhibition at 1 µM in experiment [1] and in experiment [2] was < 20% each time. The values for the IC50 in experiment [3] and in experiment [4] were ≥ 2000 nM and < 50 nM, respectively.
`C[C@H](CCC(=O)N(CCS(=O)(=O)O)C1CCCCC1)[C@H]1CC[C@H]2[C@@H]3CC[C@@H]4C[C@H](O)CC[C@]4(C)[C@H]3CC[C@]12C` [NC10016]: the inhibition at 1 µM in experiment [1] and in experiment [2] was > 100% throughout. Besides, the IC50 in experiment [3] is < 500 nM; in experiment [4] it was < 50 nM.
Regarding `CCN(CC)CCNC(=O)CC[C@@H](C)[C@H]1CC[C@H]2[C@@H]3CC[C@@H]4C[C@H](O)CC[C@]4(C)[C@H]3C[C@H](O)[C@]12C` [NC10017], the inhibition at 1 µM in experiment [1] and in experiment [2] was > 100% in each case. Besides, the IC50 in experiment [3] is 500 to 1000 nM; in experiment [4], < 50 nM.
In the case of `C[C@H](CCC(=O)NCCN1CCOCC1)[C@H]1CC[C@H]2[C@@H]3CC[C@@H]4C[C@H](O)CC[C@]4(C)[C@H]3C[C@H](O)[C@]12C` [NC10018], the inhibition at 1 µM was 50 to 100% in experiment [1] and 20 to 50% in experiment [2]. The IC50 in experiment [3] was ≥ 2000 nM; in experiment [4] it was 50 to 100 nM.
With `C[C@H](CCC(=O)N1CCN(C)CC1)[C@H]1CC[C@H]2[C@@H]3CC[C@@H]4C[C@H](O)CC[C@]4(C)[C@H]3C[C@H](O)[C@]12C` [NC10019], the inhibition at 1 µM in experiment [1] was < 20%; in experiment [2] it was 20 to 50%. In addition, the figures for the IC50 in experiment [3] and in experiment [4] were 500 to 1000 nM and ≥ 200 nM, respectively.
With `C[C@H](CCC(=O)N(CCS(=O)(=O)O)Cc1ccccc1)[C@H]1CC[C@H]2[C@@H]3CC[C@@H]4C[C@H](O)CC[C@]4(C)[C@H]3C[C@H](O)[C@]12C` [NC10022], the inhibition at 1 µM in experiment [1] lay within 20 to 50%; in experiment [2], 50 to 100%. Also, the IC50 in experiment [3] lay within 500 to 1000 nM; in experiment [4], 100 to 200 nM.
In the case of `CC(C)N(CCS(=O)(=O)O)C(=O)CC[C@@H](C)[C@H]1CC[C@H]2[C@@H]3CC[C@@H]4C[C@H](O)CC[C@]4(C)[C@H]3C[C@H](O)[C@]12C` [NC10024], the inhibition at 1 µM in experiment [1] is < 20%; in experiment [2] it was > 100%. For the same compound, the IC50 in experiment [3] lay in the range of 1000 to 2000 nM; in experiment [4], 50 to 100 nM.
In the case of `C[C@H](CCC(=O)N1CCC[C@H](S(=O)(=O)O)C1)[C@H]1CC[C@H]2[C@@H]3CC[C@@H]4C[C@H](O)CC[C@]4(C)[C@H]3C[C@H](O)[C@]12C` [NC10026], the figures for the inhibition at 1 µM in experiment [1] and in experiment [2] were < 20% and > 100%, respectively. Also, the results for the IC50 in experiment [3] and in experiment [4] were 1000 to 2000 nM and < 50 nM, respectively.
For `C[C@H](CCC(=O)N1CCC[C@@H](S(=O)(=O)O)C1)[C@H]1CC[C@H]2[C@@H]3CC[C@@H]4C[C@H](O)CC[C@]4(C)[C@H]3C[C@H](O)[C@]12C` [NC10027], in that order: < 20%, > 100%, 500 to 1000 nM and < 50 nM.
As to `C[C@H](CCC(=O)N1CC(S(=O)(=O)O)C1)[C@H]1CC[C@H]2[C@@H]3CC[C@@H]4C[C@H](O)CC[C@]4(C)[C@H]3C[C@H](O)[C@]12C` [NC10028], the values for the inhibition at 1 µM in experiment [1] and in experiment [2] were < 20% and > 100%, respectively. The results for the IC50 in experiment [3] and in experiment [4] were ≥ 2000 nM and 50 to 100 nM, respectively.

Usually inhibition stands for the percentage by which the read-out fell short of the control. What is called IC50 is the concentration at which inhibition is half-maximal.
